Laboratory results reported in patent US20060099712A1, “Correlation of anti-cancer activity of dyes with redox potentials” (Eastman Kodak Company, priority 2004, published 2006).
Several values for one entry are separate records, joined by “and”; a condition that tells them apart may be missing. Identical values can stand only once. Like-named read-outs stand apart in the source and are kept apart here.

Columns and labels:
[1] = Electrochemical reduction potential (Er) measurement, SHACV / fast scan CV; type: physicochemical
Text: In the practice of this invention the reduction potential of a given dye may be determined in various ways. If available, the published reduction potential may be employed. Reduction potentials for numerous cyanine and merocyanine dyes are available in the literature. (See J. Lenhard, Journal of Imaging Science, vol. 30 pp. 27-35 (1986).) A large amount of data has been generated on the reduction and oxidation potentials of these dyes from their use in photography and related arts where they are employed, inter alia, as spectral sensitizers.
If a published reduction potential is not available, suitable techniques for measuring reduction potential are available. Accurate electrochemical oxidation and reduction potentials for these organic dyes can be measured by the techniques of fast scan cyclic voltommetry (CV) or second harmonic ac voltommetry (SHACV). SHACV measurements are made as described by Lenhard in the Journal of Imaging Science volume 30, 1986 pp 27-35 using a commercially available (Princeton Applied Research Corp.) potentiostat in conjunction with voltage programmer, a conventional lock-in amplifier, and a low-distortion oscillator. The SHACV method utilizes an ac voltage waveform (of a frequency greater than or equal to 400 hz) that is superimposed on a DC potential ramp. On the other hand, the measurement of the oxidation or reduction potential by the CV method utilizes a (high frequency) triangular voltage waveform. The general procedures for measuring potentials by this method have been described by Wightman in Analytical Chemistry, 1984, vol. 56, pp524 and Journal of Physical Chemistry, 1984, vol. 88, pp3915. The specific application of this technique to the measurement of cyanine dye potentials has been reported by Nomura and Okazaki, Chemistry Letters, 1990, pp2231-2234. Commercial instrumentation especially designed for fast scan (i.e., high frequency) CV is available. It is noteworthy that because of the complicated nature of many of the cyanine dyes, electrochemical reactions, conventional slow scan cyclic voltommetry or polarography methods (as described by R. Large in Photographic Sensitivity, R. Cox, ed., Academic Press, New York, 1973, pp 241-263) provide only approximate values for oxidation and reduction potentials. Errors as large as 0.4 V from the true potential can be obtained by using slow scan CV or electrochemical methods.
The procedure for measuring the oxidation or reduction potential by the SHACV or fast scan CV method utilizes solutions of acetonitrile (or similar nonaqueous solvent) with added tetrabutylammonium tetrafluoroborate TBABF4 at a concentration of 0.1 M and ca. 5×10^−4 M of the cyanine, oxonol, or merocyanine dye. For measurement of the reduction potential the solution must be deaerated with argon prior to examination. The preferred working electrode is a Pt disk (ca. 0.02 cm^2) that is polished with 1 μm diamond paste, rinsed with water, and dried before each experiment. The reference electrode is a NaCl saturated calomel electrode. The cell and reference electrodes are maintained at 22 C. A value of 40 mV is added to the measured potentials to convert the number to that corresponding to an Ag/AgCl reference electrode. If a solvent other than acetonitrile is used then the measured potential must be referenced to a standard organic redox system such as ferrocene and corrected accordingly.
SHACV (Second Harmonic Alternating Current Voltametry) measurements are made as described by Lenhard in the Journal of Imaging Science volume 30, 1986 pp 27-35 using a commercially available (Princeton Applied Research Corp.) potentiostat in conjunction with voltage programmer, a conventional lock-in amplifier, and a low-distortion oscillator. The SHACV method utilizes an ac voltage waveform (of a frequency greater than or equal to 400 hz) that is superimposed on a DC potential ramp. […]

[2] = system: CX-1 Human Colon Carcinoma; experiment: Clonogenic dye screening assay, CX-1 cells (IC50); type: cell-based; settings: for IC50: Homo sapiens; for Selectivity: Table 1, cell line not given, values equal CV/CX of Table II; for CV/CX (selectivity, kill ratio): ratio of IC50 in normal CV-1 line to IC50 in carcinoma CX-1 line; for CX (IC50 in the CX-1 cell line): 3 hrs treatment, unit from method b117-118
How it was run: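 Cells seeded 16-30 h ahead (2000 CX-1 or 1000 CV-1 per well), exposed to serially diluted dyes for 3 h at 37 °C, rinsed three times, then grown into colonies. Eight-point curves spanned 0.32-0.0015 μg/mL (CX-1) and 3.2-0.025 μg/mL (CV-1). IC50 is the concentration killing 50% of cells.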

[3] = system: CV-1 Normal Monkey Kidney Epithelial; experiment: Clonogenic dye screening assay, CV-1 cells (IC50); type: cell-based, African green monkey; settings: for IC50: Primates; for CV (IC50 in the CV-1 cell line): 3 hrs treatment, unit from method b117-118
Text: CX-1 is a cancerous human colon adenocarcinoma cell line. CV-1 is a non-cancerous control, which is a kidney epithelial cell line from an African green monkey. IC50 is the dye concentration at which 50% of the cells are killed. Selectivity or kill ratio is defined as the ratio of […] at IC50 for both CX-1 and CV-1. A ratio with a high number indicates a high selectivity.
The dyes were screened in two cell lines. CX-1 is a human colon adenocarcinoma cell line. CV-1 is a kidney epithelial cell line from an African green monkey. CV-1 was used as a reference because no normal human epithelial cell line is available for clonogenic assay.
In the initial screen, dyes were examined at six different concentrations to generate a dose response curve. An IC50 value, the concentration at which 50% of the cells are killed, was then calculated. Initially, a dye concentration of 1.0 μg/mL was the highest examined for the CX-1 cell line and 0.005 μg/mL was the lower limit. The corresponding limits on the CV-1 cell line were […].
The screening procedure used a response curve that was determined from eight dye concentrations. The upper and lower limits of CX-1 were 0.32 and 0.0015 μg/mL, respectively, and the corresponding revised limits on CV-1 were 3.2 and 0.025 μg/mL. The screening results were reported by assigning an IC50 value to each dye for the CV-1 and CX-1 cell lines. These values will be referred to herein simply as CV and CX. The most desirable result would be to have a dye that was highly toxic to carcinoma cells but nontoxic to ‘normal’ cells. One measure of this type of selectivity is the ratio of the IC50's in the normal cell line to that in the carcinoma line, CV/CX.
Compounds are screened via an in vitro assay. CV-1 and CX-1 cells are seeded into separate assay plates. The plates are treated with varying concentrations of test compounds, rinsed, and colonies allowed to grow. IC50's are determined and drugs evaluated based on their selectivity and toxicity. Assay Steps: • I. Seeding Cells • II. Weighing • III. Preparation of Solution • IV. Treatment • V. Rinsing and Feeding • VI. Fixing • VII. IC50 Determination I. Seeding Cells
The cells should be seeded 16-30 hours before treatment. The media for CV-1 cells is DME+5% calf serum +5% Nuserum. The media for CX-1 cells is RPMI/DME (50/50)+5% calf serum +5% Nuserum.
(c) number of cells based on 2000 CX-1 cells/well and 1000 CV-1 cells/well. NOTE: Always make enough cell suspension for 1 extra plate to allow for volume loss during transfers.
• (a) For CV-1: 256 ug/ml-256 ul of 1 mg/ml stock +744 ul DMSO • (b) For CX-1: 25.6 ug/ml-100 ul of 256 ug/ml+900 ul DMSO IV. Treatment • 1. Each plate is treated with 4 test compounds, one positive control and one negative control. • 2. Serial dilutions of the compounds are made in the following way:
2 multi-well pipetters are used. One is set for 10 ul and one for 200 ul. Each is equipped with 6 tips spaced such that they fit into the 6 rows of a plate. 390 ul of media is added to the first column of each plate. 10 ul each of 4 compound solutions, a positive and a negative control are taken up and put into the first column of wells. The 200 ul pipetter is then placed in the same wells, pipetted up and down 3 times and two 200 ul aliquots are moved to the next column of wells. This column is pipetted up and down 3 times and 400 ul moved to column 3, etc. The final 400 ul excess from column 8 is discarded.
• 3. Label the plates along the front, each row −1 compound. • 4. Incubate the plates at 37° C. for 3 hrs. V. Rinsing • 1. Prepare several bottles of CX-1 and CV-1 media. • 2. Check for precipitate in first column of each plate and note. • 3. Starting with the plates treated first, rinse several plates at a time by aspirating the treatments and refilling each well with 0.5-1.0 ml of the rinse media. Aspirate and refill 2 more times for a total of 3 rinses. • 4.

[4] = system: CCL 185 Human Lung Carcinoma; experiment: Initial in vitro screening, lung carcinoma cells; type: cell-based; settings: cell line 6, CCL 185 human lung carcinoma; unit from method; read-out: IC50 (concentration at which 50% of the cells of the culture are killed)
Text: (§1) Other publications have shown that some cyanine dyes show anti-cancer activity. See I. Minami, Y. Kozai, H. Nomura and T. Tashiro, Chem. Phar. Bull. 30:3106 (1982); W. M. Anderson, D. L. Delinick, L. Benninger, J. M. Wood, S. T. Smiley and L. B. Chen, Biochemical Pharmacology, 45:691 (1993). […] (See L. G. S. Brooker, L. A. Sweet, Science, 105, (1947) and I. Minami, Y. Kozai, H. Nomura, T. Tashiro, Chem. Pharm. Bull., 30,3106 (1982) on chemotherapeutic investigations of cyanine dyes.) Table I lists initial in vitro screening results in various cell lines and a comparison with Adriamycin, which is a widely used chemotherapeutic agent.
(§2) Description of Cell Line • 1. CV-1 Normal Monkey Kidney Epithelial (control) • 2. CX-1 Human Colon Carcinoma • 3. Human Breast Carcinoma • 4. Human Pancreatic Carcinoma • 5. Human Bladder Carcinoma • 6. Human Lung Carcinoma • 7. Human Squamous Cell Carcinoma • 8. Human Adrenal Cortex Carcinoma

[5] = system: EJ Human Bladder Carcinoma; experiment: Initial in vitro screening, bladder carcinoma cells; type: cell-based; settings: cell line 5, EJ human bladder carcinoma; unit from method; read-out: IC50 (concentration at which 50% of the cells of the culture are killed)
Text: as §1, §2

[6] = system: SCC 68 Human Squamous Cell Carcinoma; experiment: Initial in vitro screening, squamous cell carcinoma cells; type: cell-based; settings: cell line 7, SCC 68 human squamous cell carcinoma; unit from method; read-out: IC50 (concentration at which 50% of the cells of the culture are killed)
Text: as §1, §2

[7] = system: MCF-7 Human Breast Carcinoma; experiment: Initial in vitro screening, breast carcinoma cells; type: cell-based; settings: MCF7; cell line 3, MCF-7 human breast carcinoma; unit from method; read-out: IC50 (concentration at which 50% of the cells of the culture are killed)
Text: as §1, §2

[8] = system: CRL 1420 Human Pancreatic Carcinoma; experiment: Initial in vitro screening, pancreatic carcinoma cells; type: cell-based; settings: cell line 4, CRL 1420 human pancreatic carcinoma; unit from method; read-out: IC50 (concentration at which 50% of the cells of the culture are killed)
Text: as §1, §2

[9] = system: CCL 105 Human Adrenal Cortex Carcinoma; experiment: Initial in vitro screening, adrenal cortex carcinoma cells; type: cell-based; settings: cell line 8, CCL 105 human adrenal cortex carcinoma; unit from method; read-out: IC50 (concentration at which 50% of the cells of the culture are killed)
Text: as §1, §2

[10] = CX-1, 3 hrs treatment, colonies after 7-10 days, unit from method, read-out: CX (IC50 in the CX-1 cell line)
[11] = CV-1, 3 hrs treatment, colonies after 7-10 days, unit from method, read-out: CV (IC50 in the CV-1 cell line)

ER(v), electrochemical reduction potential [1] [V]	IC50 [2, 10] [µg/mL]	SMILES	Selectivity [2]	CV/CX (selectivity, kill ratio) [2]	IC50 [3, 11] [µg/mL]	also measured
−1.1	0.01	CCN1/C(=c2\s/c(=c3\s/c(=C/c4sc5ccccc5[n+]4CC)n(CC)c3=O)n(CC)c2=O)Sc2ccccc21 [Dye D-112]	900	900	9	
−1.15	0.04	CC[n+]1c(/C=C/C(C(=O)c2ccccc2)=P(c2ccccc2)(c2ccccc2)c2ccccc2)sc2ccccc21 [Dye D-148]	250	250	> 10	
	0.03	CCN1/C(=C/C=C/c2oc3ccc(-c4ccccc4)cc3[n+]2CCOC(C)=O)Sc2ccccc21 [Dye D-153]		100	3	
−0.9	3	Clc1ccc2c(c1)N1CCC(/C=C3\CC[n+]4c3sc3ccc(Cl)cc34)=C1S2 [Dye D-168]	100.0	100.0		

Continued, compound first:

SMILES	ER(v), electrochemical reduction potential [1] [V]	IC50 [2, 10] [µg/mL]	Selectivity [2]	CV/CX (selectivity, kill ratio) [2]	IC50 [3, 11] [µg/mL]	also measured
CC[n+]1c(/C=C/c2ccc(N(C)C)cc2)[te]c2ccc(C)cc21 [Dye D-156]				60		IC50 ([2]; CX-1, read-out: CX (IC50 in the CX-1 cell line)): 0.05 µg/mL; IC50 ([3]; CV-1, read-out: CV (IC50 in the CV-1 cell line)): 3 µg/mL
CCN1/C(=C/C=C/C=C/c2sc3cc4ccccc4cc3[n+]2CC)Sc2cc3ccccc3cc21 [Dye D-162]				60	3	
CCN1/C(=C/C=c2\s/c(=C\c3sc4ccccc4[n+]3CC)n(CCC(=O)O)c2=O)Sc2ccccc21 [Dye D-167]				100.0	10	
CCN1/C(=C/N=N/c2sc3ccccc3[n+]2CC)Sc2ccccc21 [Dye O-1, reference compound]						IC50 [4]: 0.8 µg/mL; IC50 [5]: 0.3 µg/mL; IC50 ([2]; CX-1, cell line 2, CX-1, unit from method, read-out: IC50 (concentration at which 50% of the cells of the culture are killed)): 0.5 µg/mL; IC50 [6]: 0.3 µg/mL; IC50 ([3]; CV-1, cell line 1, CV-1 normal control, unit from method, read-out: IC50 (concentration at which 50% of the cells of the culture are killed)): 7.5 µg/mL; IC50 [7]: 0.3 µg/mL; IC50 [8]: 0.75 µg/mL; IC50 [9]: 0.3 µg/mL
CC(=CC(C)=C1Sc2ccccc2N1C)c1sc2ccccc2[n+]1C [drawing 38|M|Me|H|Me]				2.5		CX (IC50 in the CX-1 cell line) ([2]; colonies after 7-10 days): 0.2 µg/mL; CV (IC50 in the CV-1 cell line) ([3]; colonies after 7-10 days): 0.5 µg/mL
CCN1/C(=C/C(C)=C/c2sc3ccc4ccccc4c3[n+]2CC)Oc2ccc3ccccc3c21 [drawing 40|E|Me]				3.33 and 2.0		CX (IC50 in the CX-1 cell line) ([2]; colonies after 7-10 days): 0.03 µg/mL and 0.05 µg/mL; CV (IC50 in the CV-1 cell line) ([3]; colonies after 7-10 days): 0.1 µg/mL
